Measurements as given in patent publication US20060233809A1, “Method for treating prostate conditions” (priority 2005, published 2006).
Read-outs that look alike come from different tables or passages of the source.

Experiments:
[1] = target: T1, BCRP (Rattus norvegicus, UniProt Q80W57); type: cell-based; conditions: RPE cells
T1 construct: the Mx-RPE cells have a higher level of BCRP activity than RPE cells; endogenous in cells; host or cells: Mx-RPE (mitoxantrone-resistant subline of rat RPE cells)
T1 sequence (Q80W57 1-657): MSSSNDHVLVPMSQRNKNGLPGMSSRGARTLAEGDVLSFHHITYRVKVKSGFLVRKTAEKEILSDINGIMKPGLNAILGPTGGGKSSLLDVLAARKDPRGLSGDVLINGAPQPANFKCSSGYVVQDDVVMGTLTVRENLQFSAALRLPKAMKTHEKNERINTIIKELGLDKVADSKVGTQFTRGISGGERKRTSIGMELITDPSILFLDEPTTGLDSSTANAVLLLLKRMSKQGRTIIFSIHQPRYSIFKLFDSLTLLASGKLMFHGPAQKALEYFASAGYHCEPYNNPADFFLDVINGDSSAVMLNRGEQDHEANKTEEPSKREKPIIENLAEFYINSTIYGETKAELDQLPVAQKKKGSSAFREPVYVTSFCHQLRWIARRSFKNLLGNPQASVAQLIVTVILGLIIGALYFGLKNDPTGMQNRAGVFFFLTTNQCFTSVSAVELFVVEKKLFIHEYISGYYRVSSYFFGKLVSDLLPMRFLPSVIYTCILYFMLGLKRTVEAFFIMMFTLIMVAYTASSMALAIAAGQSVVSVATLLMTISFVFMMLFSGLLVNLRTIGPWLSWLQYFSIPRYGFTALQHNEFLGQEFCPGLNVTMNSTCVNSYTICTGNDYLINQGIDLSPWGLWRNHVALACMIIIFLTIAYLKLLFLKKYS
Description: (§1) Data for Hoechst 33342 efflux represent two independent experiments (n>1,000 cells, *** P<0.0001).
(§2) Additionally, novobiocin and fumitremorgin C were compared in RPE cells as inhibitors of BCRP-mediated efflux of Hoechst 33342, the marker utilized to identify the side population phenotype of stem cells. Fumitremorgin C is a specific inhibitor for BCRP-mediated transport.

[2] = test system: DP3 cell line; test: Intracellular [3H]dihydrotestosterone accumulation in BCRP-lacking DP3 control cell line; type: cell-based, rat; conditions: DP3 cell line (lacks BCRP)
Description: as §2

[3] = test system: TRAMP mice; test: Foci of SV40Tag+ cells in prostates of castrated TRAMP mice treated with novobiocin; type: in vivo, mouse; conditions: novobiocin 25 mg/kg/5 times a week
Description: In this model, the PB-SV40 large T antigen transgene (SV40Tag) is expressed specifically in the epithelial cells of the murine prostate. Cells expressing the SV40Tag transgene can be detected by immunohistological methods using labeled monoclonal antibodies to SV40Tag. Adenocarcinoma of the prostate in TRAMP mice arises as early as eight weeks of age and is characterized by tumor cells that uniformly express high levels of AR and that regress upon castration. In contrast, poorly differentiated neuroendocrine-like carcinomas in TRAMP mice are characterized by expression of the neuroendocrine marker synaptophysin, and an absence, or weak and heterogeneous expression of AR. Neuroendocrine-like carcinomas are rare in young TRAMP mice, but arise rapidly in mice that are castrated between 12 and 14 weeks of age (Kaplan-Lefko et al., Prostate (2003); 55:219-37; Johnson et al., Prostate (2005); 62:322-38).
Treatment of the TRAMP mice with novobiocin (25 mg/kg/5 times a week), or saline (physiologic saline/5 times a week), was initiated at 13 weeks of age and all mice were castrated at 14 weeks of age (1 week following initiation of treatment). TRAMP mice were treated until 19 weeks of age, at which time the prostates, lymph nodes, small intestine, and liver were harvested and processed for analysis using standard techniques. […]

[4] = test system: AR protein in RPE cells (BCRP-mediated transport); test: Immunocytochemical analysis of nuclear-localized AR protein in RPE cells; type: cell-based, rat; conditions: 50 μmol/L novobiocin and/or 3 nmol/L dihydrotestosterone, 14 hours; immunocytochemistry, n>200 cells/group
[5] = test system: AR protein in RPE cells (BCRP function); test: Immunoblot analysis of AR protein in RPE cell lysates; type: cell-based, rat; conditions: 50 μmol/L novobiocin and/or 3 nmol/L dihydrotestosterone; normalized to actin
[6] = target: T1, BCRP; type: cell-based; conditions: Mx-RPE cells
Description: as §1
Rat prostate progenitor (stem cell-like) cell lines (RPE, DP2, DP3, and DP4) were established from regenerating prostates of Fischer-344 rats and were maintained in prostate growth media (Presnell et al., Prostate Cancer Prostatic Dis (1999); 2:257-63) supplemented with 2% fetal bovine serum (FBS; Hyclone, Logan, UT) without androgen supplementation. […] A subpopulation of RPE cells was selected for resistance to mitoxantrone (Mx-RPE) by continuous culture in increasing concentrations of mitoxantrone (0.2-4 μmol/L; Sigma).
Additionally, novobiocin and fumitremorgin C were compared in RPE cells as inhibitors of BCRP-mediated efflux of Hoechst 33342, the marker utilized to identify the side population phenotype of stem cells. Fumitremorgin C is a specific inhibitor for BCRP-mediated transport. […] The moderate increase in nuclear Hoechst 33342 dye in RPE cells with inhibited BCRP function reflects a combination of the limited dynamic range of digital imaging technology and the constitutive expression of MDR-1 in the RPE cells (data not shown) because MDR-1 also effectively transports Hoechst 33342 dye; however, novobiocin and fumitremorgin C inhibit only the BCRP-mediated component of Hoechst efflux, not MDR-1 function (Doyle et al., Oncogene (2003); 22:7340-58; Shiozawa et al., Int. J. Cancer (2004); 108:146-51).

[7] = cited from earlier work
[8] = limiting use in vivo; cited from earlier work

| SMILES | increase in retention of Hoechst 33342 ([1]; 5 mmol/L novobiocin) [fold] | increase in retention of Hoechst 33342 ([1]; 10 mmol/L novobiocin) [fold] | effect on the level of accumulation of intracellular [3H]dihydrotestosterone [2] | establishment of recurrent growth in TRAMP [3] | #Foci/Animal, pattern: >10 cells Differentiated ([3]; 13 to 19 weeks of age) | increase in the level of nuclear-localized AR in RPE cells [4] [fold] | increase of AR protein in RPE cells (immunoblot) [5] [fold] | increase in intracellular levels of [3H]dihydrotestosterone ([6]; 5 mmol/L novobiocin) [fold] | increase in intracellular levels of [3H]dihydrotestosterone ([6]; 10 mmol/L novobiocin) [fold] | toxicity in humans [7] | increase in nuclear Hoechst 33342 compared with the DMSO control ([1]; 10 μmol/L fumitremorgin C) [fold] | neurotoxicity [8] | increase in intracellular levels of [3H]dihydrotestosterone ([6]; 10 μmol/L fumitremorgin C) [fold] |
| --- | --- | --- | --- | --- | --- | --- | --- | --- | --- | --- | --- | --- | --- |
| CO[C@@H]1[C@@H](OC(N)=O)[C@@H](O)[C@H](Oc2ccc3c(O)c(NC(=O)c4ccc(O)c(CC=C(C)C)c4)c(=O)oc3c2C)OC1(C)C [novobiocin] | 1.2 | 1.45 | no effect | inhibited establishment of recurrent growth | significant increase | 2.4 | 7 | 2.4 | 5.5 | well tolerated toxicity in humans | – | – | – |
| COc1ccc2c3c([nH]c2c1)[C@H](C=C(C)C)N1C(=O)[C@@H]2CCCN2C(=O)[C@@H]1C3 [fumitremorgin C] | – | – | – | – | – | – | – | – | – | – | 2.3 | extremely neurotoxic | 3.3 |
| C[C@]12CCC(=O)C[C@@H]1CC[C@@H]1[C@@H]2CC[C@]2(C)[C@@H](O)CC[C@@H]12 [dihydrotestosterone] | – | – | – | – | – | 2.8 | – | – | – | – | – | – | – |
